Measured values published in patent US10934263B2, “Charged ion channel blockers and methods for use” (Nocion Therapeutics, Inc., priority 2019, dated 2021).

How the values were obtained:
[1] = PAMPA membrane permeability assay; type: in vitro ADME; details: PAMPA permeability coefficient, GIT lipid, buffer pH 7.4, 4 hours incubation
Experimental: The PAMPA assay (pION, Inc., Woburn Mass.) was used to determine the ability of compounds of the invention to cross an artificial lipid membrane by passive diffusion. Test compounds were dissolved in DMSO (10 mM) and diluted 200-fold in buffer (pION Inc., pH 7.4) to provide 50 uM stock solutions. Buffer (150 μL) was added to a UV blank plate and stock solutions (150 μL) were transferred to a UV reference plate. The blank and reference spectrum were read using a spectrophotometer. Stock solutions (200 μL) were added to the donor plate of the PAMPA sandwich plate and an accept plate painted with GIT lipid (pION Inc, 5 μL) was placed on top. Buffer (200 μL) was added to the acceptor plate and the PAMPA sandwich plate was incubated for 4 hours. Aliquots (150 μL) from the acceptor plate were added to a UV plate and read as acceptor spectrum. Aliquots (150 μL) of the donor solutions were added to a UV analysis plate and read as donor spectrum. The permeability coefficient of test compounds was calculated using PAMPA Explorer™ software (version 3.5.0.4) based on the AUC of the reference plate, the donor plate, and the acceptor plate.

NaV1.7 [2] = target: T1, NaV1.7 (Homo sapiens, UniProt Q15858); test: Automated patch clamp (Qube 384), external block of NaV1.7 in HEK293 cells; type: cell-based; details: compound in external solution, read-out: Nav1.7 Extracellular Inhibition (IC50)
T1 construct: expressed in transfected cells; tetracycline-inducible, kept under hygromycin and blasticidin
T1 sequence (Q15858 whole entry): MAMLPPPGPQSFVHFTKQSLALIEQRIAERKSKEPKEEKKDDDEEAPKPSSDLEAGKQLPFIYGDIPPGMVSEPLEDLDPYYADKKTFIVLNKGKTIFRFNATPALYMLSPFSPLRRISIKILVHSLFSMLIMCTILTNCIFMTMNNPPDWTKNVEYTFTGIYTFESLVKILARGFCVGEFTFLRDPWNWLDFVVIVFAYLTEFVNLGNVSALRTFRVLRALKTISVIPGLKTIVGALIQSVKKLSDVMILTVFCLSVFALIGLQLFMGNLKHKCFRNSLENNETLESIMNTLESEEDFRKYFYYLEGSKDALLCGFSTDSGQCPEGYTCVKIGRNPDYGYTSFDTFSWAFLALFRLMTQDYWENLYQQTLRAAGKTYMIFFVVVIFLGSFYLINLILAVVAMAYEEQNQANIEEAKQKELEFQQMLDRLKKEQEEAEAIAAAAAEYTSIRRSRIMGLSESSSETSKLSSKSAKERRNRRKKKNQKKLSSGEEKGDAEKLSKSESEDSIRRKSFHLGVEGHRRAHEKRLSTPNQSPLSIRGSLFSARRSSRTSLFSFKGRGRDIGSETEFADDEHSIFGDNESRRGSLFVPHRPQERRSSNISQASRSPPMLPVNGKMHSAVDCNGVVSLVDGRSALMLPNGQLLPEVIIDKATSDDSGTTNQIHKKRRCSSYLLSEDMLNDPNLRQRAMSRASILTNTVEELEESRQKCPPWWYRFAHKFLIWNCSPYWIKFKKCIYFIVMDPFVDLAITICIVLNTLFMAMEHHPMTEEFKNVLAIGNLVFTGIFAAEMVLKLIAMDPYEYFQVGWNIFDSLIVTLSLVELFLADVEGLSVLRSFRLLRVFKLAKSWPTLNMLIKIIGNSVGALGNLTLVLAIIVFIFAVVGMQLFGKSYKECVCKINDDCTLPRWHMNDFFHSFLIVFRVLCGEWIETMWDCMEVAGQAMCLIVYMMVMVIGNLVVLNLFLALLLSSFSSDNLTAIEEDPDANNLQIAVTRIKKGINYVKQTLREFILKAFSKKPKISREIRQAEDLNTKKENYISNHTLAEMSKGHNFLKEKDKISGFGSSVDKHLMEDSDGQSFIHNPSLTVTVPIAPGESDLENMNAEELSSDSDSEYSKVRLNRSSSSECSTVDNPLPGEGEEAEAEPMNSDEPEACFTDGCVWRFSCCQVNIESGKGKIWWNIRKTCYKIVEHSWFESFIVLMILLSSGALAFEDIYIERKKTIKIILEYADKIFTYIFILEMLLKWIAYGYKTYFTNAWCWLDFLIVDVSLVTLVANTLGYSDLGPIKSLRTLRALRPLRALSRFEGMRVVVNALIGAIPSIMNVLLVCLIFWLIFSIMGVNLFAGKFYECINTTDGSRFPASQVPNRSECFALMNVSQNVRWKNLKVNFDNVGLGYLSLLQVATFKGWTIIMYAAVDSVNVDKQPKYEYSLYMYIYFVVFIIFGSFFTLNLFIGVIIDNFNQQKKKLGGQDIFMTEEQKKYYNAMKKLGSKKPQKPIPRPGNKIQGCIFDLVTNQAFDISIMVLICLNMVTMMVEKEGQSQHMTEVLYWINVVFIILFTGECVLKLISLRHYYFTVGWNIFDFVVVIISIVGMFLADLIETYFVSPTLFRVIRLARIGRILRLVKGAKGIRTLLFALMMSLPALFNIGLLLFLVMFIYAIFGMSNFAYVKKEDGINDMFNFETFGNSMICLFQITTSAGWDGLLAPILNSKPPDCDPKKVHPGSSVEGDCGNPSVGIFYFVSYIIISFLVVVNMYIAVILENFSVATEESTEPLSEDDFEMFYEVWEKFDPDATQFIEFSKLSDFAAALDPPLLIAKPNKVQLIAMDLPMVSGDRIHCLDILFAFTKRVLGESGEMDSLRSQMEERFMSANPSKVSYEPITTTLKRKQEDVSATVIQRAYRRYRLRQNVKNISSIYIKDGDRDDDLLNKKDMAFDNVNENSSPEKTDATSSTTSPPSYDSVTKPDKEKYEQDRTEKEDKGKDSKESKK
Experimental: (§1) NaV1.7 was expressed in HEK293 cells upon induction with tetracycline. Cells were cultured in DMEM containing 10% dialyzed Fetal Bovine Serum (VWR, Radnor, Pa.), 1% Glutamax (VWR, Radnor, Pa.), 1% Penicillin-Streptomycin (VWR, Radnor, Pa.), 100 mg/L Hygromycin (Thermo Fisher Scientific, Waltham, Mass. and 5 mg/L Blasticidin (Alfa Aesar, Haverhill, Mass.). Cells were grown and maintained at 37° C. in a humidified environment containing 10% CO2 in air. Cells were detached from the culture flask for passage and harvested using 0.05% Trypsin-EDTA (Thermo Fisher Scientific, Waltham, Mass.). To induce NaV1.7, cells were induced with tetracycline (0.1-1 μg/mL, IBI Scientific, Peosta, Iowa) the day before recording.
(§2) Before experiments, cells were washed with DPBS (VWR, Radnor, Pa.), digested with Detachin (VWR Radnor, Pa.) and then triturated 10 times in CHO Serum-Free Media (VWR Radnor, Pa.) to resuspend the cells and to break apart cell aggregates. Cells were counted and the final concentration was set at 2-5 million cells per mL.
(§3) The intracellular solution contained the following: 140 mM CsF, 1 mM/5 mM EGTA/CsOH, 10 mM HEPES, 10 mM NaCl, adjusted to pH 7.3 with CsOH, and osmolality to 320 with sucrose. The external solution contained the following: 145 mM NaCl, 4 mM KCl, 1 mM MgCl2, 2 mM CaCl2, 10 mM HEPES, 10 mM Glucose, adjusted to pH 7.4 with CsOH and osmolality to 305 with sucrose. All chemicals are from Sigma-Aldrich, St. Louis, Mo. In order to test the degree of internal block by test compounds, the compounds were dissolved in internal solution at the indicated test concentration. […] In order to test the degree of external block by test compounds the compounds were dissolved in external solution at the indicated test concentration.
(§4) Automated Patch Clamps were performed on Qube 384 (Sophion Bioscience, Woburn Mass.) with multihole Qchips at a temperature setting of 22 degrees. The whole cells configuration was formed with default Qube seal and break-in parameter. The membrane potential was held at −100 mV before the voltage protocol began. Two voltage protocols were followed.
(§5) Step 1: Cells were held at −100 mV with a depolarized pulse to −20 mV for 10 ms, the interval was set at 5 s. Currents were corrected by default leak subtraction from every pulse. The duration was set at 5 mins.
(§6) Step 2: Cells were held at −100 mV with a depolarized pulse to −20 mV for 10 ms. The frequency was 5 Hz. Currents were corrected by leak subtraction calculated before step 2. The duration was set at 4 mins.
After Step 2, the external solution was changed with solutions containing test compounds. Qchips were held at −100 mV without pulsing. The total solution switching time was 8 minutes. After the external solution exchange, cells were recorded using the same procedure as step 2 for 10 minutes.
Data analysis was performed by Sophion Analyzer. Data were corrected with control cells (Non-Drug). The IC50 data were plotted with DR-plots/Hill function (a dose-response plot with a Hill fit).

NaV1.7 [3] = target: T1, NaV1.7; test: Automated patch clamp (Qube 384), internal block of NaV1.7 in HEK293 cells; type: cell-based; details: compound in internal solution, read-out: Nav1.7 Intracellular Inhibition (IC50)
Experimental: as §1, §2, §3, §4, §5, §6
After Step 2, the Qchip was removed from the recording chamber. The internal solution was changed with solutions containing test compounds. Qchips were held at −100 mV without pulsing after being replaced in the recording chamber. The total solution switching time was 8 minutes. After the internal solution exchange, Cells were recorded and step 2 for repeated for 10 minutes.
Data analysis was performed by Sophion Analyzer. Cells were filtered with minimum 50 MOhm seal resistance and minimum 5 nA starting current. The rundown of the currents was corrected with control cells (Non-Drug). The remaining was calculated by averaging last 3 points in the end of experiments. The base line was calculated as the average of last 3 points of Step 2. IC50 curves were plotted with DR-plots/Hill function (a dose-response plot with a Hill fit). Data analysis was performed by Sophion Analyzer.

NaV1.7 [4] = target: T1, NaV1.7; test: Whole cell patch clamp, internal block of NaV1.7 current (compound in internal solution); type: cell-based; details: % inhibition at 10 μM, compound applied internally, manual patch clamp; read-out: Nav1.7 Intracellular Inhibition
Experimental: Representative compounds of the invention were synthesized according to the described methods and tested for the ability to inhibit voltage-gated sodium channels.
as §1, with “expressed” for “expressed in HEK293 cells”, “recording and plated onto 24-well plates. Cells were washed with DPBS (VWR, Radnor, Pa.), trypsinized and then triturated five times in 10 mL of growth media to break apart cell aggregates. For one 24-well plate, 2 mL of cell suspension was mixed with 23 mL of fresh growth media and 0.1-1 μg/mL tetracycline added. 1 ml of mixed media with cells was then added to each well of a 24-well plate, with a 12 mm coverslip already placed in the bottom of the well. Cells were then incubated in 37° C. and 10% CO2 overnight.” for “recording.”
The intracellular solution contained the following (in mM) CsCl 135, NaCl 10, EGTA 10, HEPES 10, MgCl2 2, adjusted to pH 7.2 with CsOH. The external solution was a normal Ringer solution containing (in mM) NaCl 155, HEPES 10, glucose 10, KCl 3.5, CaCl2 1.5, MgCl2 1 adjusted to pH 7.4 with NaOH. CsCl is from Alfa Aesar, Haverhill, Mass. All other chemicals are from Sigma-Aldrich, St. Louis, Mo. In order to test the degree of internal block by test compounds the compounds were dissolved in internal solution at the indicated test concentration. […] In order to test the degree of external block by test compounds the compounds were dissolved in external solution at the indicated test concentration.
18-24 hours after cells were induced with tetracycline, coverslips were placed into a chamber filled with Normal Ringer solution at room temperature and the chamber placed on a microscope. Pipettes were pulled from borosilicate glass on a P97 puller (Sutter Instrument, Novato, Calif.) and polished with a MF-830 Microforge (Narishige International USA, Inc, Amityville, N.Y.) to have a resistance of 1.5-2.5 MΩ when filled with CsCl internal solution at room temperature. Healthy cells (those that are round and translucent with no visible blemishes) were chosen for seal formation. A seal was formed between the pipette and the cell, and a brief pulse of suction was used to “break in” and establish the whole-cell configuration. The membrane potential was held at −100 mV before the voltage protocol began. Only cells with series resistance between 1.5-5 MΩ were retained for analysis. The voltage protocol was as follows: Cells were held at −100 mV for 12 ms followed by a hyperpolarizing step to −105 mV for 12 ms to monitor the leak. Cells were then stepped back to −100 mV for 40 ms. Cells were then depolarized to −20 mV for 10 ms and then returned to −100 mV for 26 ms.
Once the recording was started, the voltage protocol was run at 30 second intervals for 5 minutes to get a stable baseline. This was followed by four 30-second periods of 5 Hz stimulation of the same voltage protocol separated by 1 minute of rest which was then followed by 0.33 Hz stimulation after the last train. Currents were recorded using PatchMaster software with Heka EPC10 (HEKA Electronics, Lambrecht, Germany). Only cells with inward current amplitudes at −20 mV between 400 pA and 4 nA were accepted. In addition, cells having leak currents greater than 10% of their current amplitudes were discarded. […]

Row | Structure (SMILES) | PAMPA (10^−6 cm/s) [1] | IC50 (NaV1.7 [2]) [µM] | IC50 (NaV1.7 [3]) [µM] | inhibition at 10 µM (NaV1.7 [4]) [%]
1 | Cc1cccc(C)c1NC(=O)C[n+]1cccn1C1CC1 [Compound 68] | + (<0.1 10^−6 cm/s) | > 100 | 1 to 3 | –
2 | Cc1cccc(C)c1NC(=O)C[n+]1c(C)ccn1C(C)C [Compound 102] | + (<0.1 10^−6 cm/s) | > 100 | 1 to 3 | –
3 | CNC(=O)c1ccc[n+](CC(=O)Nc2c(C)cccc2C)c1 [Compound 40] | – | > 100 | 1 to 3 | 70 to 95
4 | Cc1cccc(C)c1NC(=O)C[n+]1ccc(C(N)=O)c(C(F)(F)F)c1 [Compound 90] | + (<0.1 10^−6 cm/s) | > 100 | 3 to 10 | –
5 | COc1cc(C#N)c[n+](CC(=O)Nc2c(C)cccc2C)c1 [Compound 97] | – | < 10 | 10 to 30 | 70 to 95
6 | CCOC(=O)Cn1ccc(C)[n+]1CC(=O)Nc1c(C)cccc1C [Compound 85] | + (<0.1 10^−6 cm/s) | > 100 | 3 to 10 | –
7 | COc1cc(F)c[n+](CC(=O)Nc2c(C)cccc2C)c1 [Compound 78] | + (<0.1 10^−6 cm/s) | > 100 | 1 to 3 | –
8 | Cc1cccc(C)c1NC(=O)C[n+]1cccn1CCC(C)C [Compound 74] | + (<0.1 10^−6 cm/s) | > 100 | 3 to 10 | –
9 | CCOC(=O)CCn1ccc[n+]1CC(=O)Nc1c(C)cccc1C [Compound 80] | + (<0.1 10^−6 cm/s) | > 100 | 1 to 3 | –
10 | CCCC(C(=O)Nc1c(C)cccc1C)[n+]1ccccc1 (stereo not drawn) [Compound 107] | + (<0.1 10^−6 cm/s) | > 100 | 3 to 10 | –
11 | Cc1cccc(C)c1NC(=O)C[n+]1cc(F)c2ccccc2c1 [Compound 67] | – | < 10 | 3 to 10 | 40 to 70
12 | Cc1cccc(C)c1NC(=O)C[n+]1cc(N)cc(C(F)(F)F)c1 [Compound 91] | + (<0.1 10^−6 cm/s) | 30 to 100 | 3 to 10 | –
13 | Cc1cccc(C)c1NC(=O)C[n+]1c2ccc(Cl)cc2cn1C [Compound 96] | – | 30 to 100 | 3 to 10 | 70 to 95
14 | Cc1cccc(C)c1NC(=O)C[n+]1cccc(C(C)(C)C)c1 [Compound 32] | – | > 100 | 1 to 3 | 70 to 95
15 | Cc1cccc(C)c1NC(=O)C[n+]1cc(F)ccc1-c1ccccc1 [Compound 79] | – | 30 to 100 | 1 to 3 | > 95
16 | Cc1cccc(C)c1NC(=O)C[n+]1cccc(-c2ccccc2)c1 [Compound 12] | – | 10 to 30 | 1 to 3 | –
17 | Cc1cccc(C)c1NC(=O)C[n+]1cc(-c2ccccc2)n(C)c1 [Compound 24] | – | > 100 | 3 to 10 | –
18 | Cc1cccc(C)c1NC(=O)C[n+]1cccc(N)c1 [Compound 49] | – | > 100 | 3 to 10 | 70 to 95
19 | CCNC(=O)Cn1ccc[n+]1CC(=O)Nc1c(C)cccc1C [Compound 30] | – | > 100 | 1 to 3 | –
